How the values were obtained:
[1] = target: IDH1 R132H (Homo sapiens, UniProt O75874, R132H); assay: Effect on IDH1 R132H enzyme activity (NADPH consumption, diaphorase/resazurin fluorescence); assay type: biochemical; settings: 100 ng IDH1 R132H, α-KG 1 mM, NADPH 20 μM, 60 min preincubation
Protocol: (§1) Test method: The enzyme activity of IDH1 converting α-KG to 2HG was measured by the consumption of NADPH. After the enzymatic reaction finished, the amount of residual NADPH can be reflected by fluorescence signal generated by the addition of catalytically excessive diphhorase and reazurin.
50 μL mixed liquid of substrate α-KG and NADPH (final concentration of substrate α-KG was 1 mM, final concentration of NADPH was 20 μM), and the mixture was incubated in dark for 60 min at room temperature. Detection reaction: 50 μL 1×detection buffer diluted 0.01 unit diabase and 30 μM resazurin were added into each well, and the mixture was incubated in dark at room temperature for 10 min. […] IC50 value was calculated by GraphPad Prism software.

[2] = target: IDH1 R132C (Homo sapiens, UniProt O75874, R132C); assay: Effect on IDH1 R132C enzyme activity (NADPH consumption, diaphorase/resazurin fluorescence); assay type: biochemical; settings: 80 ng IDH1 R132C, α-KG 2 mM, NADPH 20 μM, 60 min preincubation
Sequence of IDH1 R132C (O75874 whole entry R132C): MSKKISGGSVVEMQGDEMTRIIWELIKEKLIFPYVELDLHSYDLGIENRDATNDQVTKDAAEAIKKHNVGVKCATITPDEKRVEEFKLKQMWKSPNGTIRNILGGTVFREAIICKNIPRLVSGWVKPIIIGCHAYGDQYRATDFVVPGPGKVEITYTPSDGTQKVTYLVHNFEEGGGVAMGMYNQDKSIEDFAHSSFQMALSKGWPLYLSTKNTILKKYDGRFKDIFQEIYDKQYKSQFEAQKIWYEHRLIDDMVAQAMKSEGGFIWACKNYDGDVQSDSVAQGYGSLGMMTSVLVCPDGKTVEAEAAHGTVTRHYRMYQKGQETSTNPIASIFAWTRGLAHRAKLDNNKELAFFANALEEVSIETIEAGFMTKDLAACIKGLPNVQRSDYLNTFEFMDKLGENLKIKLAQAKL
Protocol: as §1
50 μL mixed liquid of substrate α-KG and NADPH (final concentration of substrate α-KG was 2 mM, final concentration of NADPH was 20 μM), and the plate was incubated in dark for 60 min at room temperature. Detection reaction: 50 μL 1×detection buffer diluted 0.01 unit diabase and 30 μM resazurin were added into each well, and the mixture was incubated in dark at room temperature for 10 min. […] IC50 value was calculated by GraphPad Prism software.

[3] = system: 2HG of fibrosarcoma cell line HT1080 expressing IDH1 mutant IDH1-R132C; assay: Inhibition of 2HG of fibrosarcoma cell line HT1080; assay type: cell-based; settings: Homo sapiens, HT-1080; HT1080 cells, 48 hours with compound, 2HG in cell supernatant; read-out: HT1080 2HG inhibitory IC50
Protocol: In this experiment, the inhibitory activity of the compound of the disclosure on the concentration level of 2HG of the fibrosarcoma cell line HT1080 was determined by the following method.
The cells were digested with trypsin and inoculated into a 24 well cell culture plate with a density of 10000 cells/well. The cells were cultured in a 5% CO2 cell incubator at 37° C. After overnight culture, the test compound was added to the cells. The final concentration of DMSO was 0.1%, and DMSO was used as control. The plate was then placed in a cell incubator and cultured for 48 hours.
Detection of 2HG: 2-HG was measured by PicoProbe™ D-2-Hydroxyglutarate (D2HG) Assay Kit of BioVision. 500 uL cell supernatant was taken from each well and added to a 10 kD centrifuge column, 12000 g, and centrifuged for 10 minutes to remove the effect of enzyme activity. […] IC50 value was calculated by GraphPad Prism software.
The inhibition rate of the sample was obtained by the following formula: […]
IC50 value was calculated by GraphPad Prism software.

Sequence of IDH1 R132H (O75874 whole entry R132H): as the sequence (O75874 whole entry R132C) above, with C132H counted along it

Compound | IC50 [1] [nM] | IC50 [2] [nM] | IC50 [3] [nM]
C[C@H](Nc1nccc(N2C(=O)OC3(COC3)[C@@H]2c2ccccc2)n1)c1ncn2c1CCc1cc(C(F)(F)F)ccc1-2 [Compound 16, (S)-8-phenyl-7-(2-(((S)-1-(7-trifluoromethyl-4,5-dihydroimidazo[1,5-a]quinolin-3-yl)ethyl)amino)pyrimidin-4-yl)-2,5-dioxa-7-azaspiro[3.4]octan-6-one] | < 50 | < 50 | 140
CC(C)[C@H]1C(C)OC(=O)N1c1ccnc(N[C@@H](C)c2ncn3c2CCc2cc(C(F)(F)F)ccc2-3)n1 (stereo partly drawn) [Compound 17, (4S)-4-isopropyl-5-methyl-3-(2-(((S)-1-(7-trifluoromethyl-4,5-dihydroimidazo[1,5-a]quinolin-3-yl)ethyl)amino)pyrimidin-4-yl)oxazolidin-2-one] | < 50 | < 50 | 87
CC(C)[C@@H]1N(c2ccnc(N[C@@H](C)c3ncn4c3CCc3cc(C(F)(F)F)ccc3-4)n2)C(=O)OC1(C)C [Compound 18, (S)-4-isopropyl-5,5-dimethyl-3-(2-(((S)-1-(7-trifluoromethyl-4,5-dihydroimidazo[1,5-a]quinolin-3-yl)ethyl)amino)pyrimidin-4-yl)oxazolidin-2-one] | 50 to 500 | < 50 | 26
C[C@H](Nc1nccc(N2C(=O)OC[C@@H]2c2ccccc2)n1)c1ncn2c1CCc1cc(C(F)(F)F)ccc1-2 [Compound 20, (S)-4-phenyl-3-(2-(((S)-1-(7-trifluoromethyl-4,5-dihydroimidazo[1,5-a]quinolin-3-yl)ethyl)amino)pyrimidin-4-yl)oxazolidin-2-one] | < 50 | < 50 | 7
C[C@H](Nc1nccc(N2C(=O)OC[C@@H]2[C@H](C)F)n1)c1ncn2c1CSc1cc(C(F)(F)F)ccc1-2 [Compound 21, (R)-4-((S)-1-fluoroethyl)-3-(2-(((S)-1-(7-trifluoromethyl-4H-benzo[b]imidazo[1,5-d][1,4]thiazin-3-yl)ethyl)amino)pyrimidin-4-yl)oxazolidin-2-one] | < 50 | < 50 | 17
C[C@H](Nc1nccc(N2C(=O)OC[C@@H]2C2CC2)n1)c1ncn2c1COc1cc(Cl)ccc1-2 [Compound 22, (S)-3-(2-(((S)-1-(7-chloro-4H-benzo[b]imidazo[1,5-d][1,4]oxazin-3-yl)ethyl)amino)pyrimidin-4-yl)-4-cyclopropyloxazolidin-2-one] | 50 to 500 | < 50 | 104
Cc1ccc2c(c1)CCc1c([C@H](C)Nc3nccc(N4C(=O)OC[C@@H]4[C@H](C)F)n3)ncn1-2 [Compound 23, (R)-4-((S)-1-fluoroethyl)-3-(2-(((S)-1-(7-methyl-4,5-dihydroimidazo[1,5-a]quinolin-3-yl)ethyl)amino)pyrimidin-4-yl)oxazolidin-2-one] | < 50 | < 50 | 22
C[C@H](Nc1nccc(N2C(=O)OC[C@@H]2[C@H](C)F)n1)c1ncn2c1COc1cc(C3CC3)ccc1-2 [Compound 26, (R)-3-(2-(((S)-1-(7-cyclopropyl-4H-benzo[b]imidazo[1,5-d][1,4]oxazin-3-yl)ethyl)amino)pyrimidin-4-yl)-4-((S)-1-fluoroethyl)oxazolidin-2-one] | < 50 | < 50 | 167
C[C@H](Nc1nccc(N2C(=O)OC[C@@H]2[C@H](C)F)n1)c1ncn2c1CCc1ccc(C(F)(F)F)cc1-2 [Compound 28, (R)-4-((S)-1-fluoroethyl)-3-(2-(((S)-1-(8-trifluoromethyl-4,5-dihydroimidazo[1,5-a]quinolin-3-yl)ethyl)amino)pyrimidin-4-yl)oxazolidin-2-one] | < 50 | < 50 | 13

— patent US20210253595A1, “2-Aminopyrimidine Derivative and Preparation Method and Use Thereof” (Etern Biopharma (Shanghai) Co., Ltd., priority 2018, published 2021)
